In US10758513B2, “Modulators of mitochondrial protein import” (THE REGENTS OF THE UNIVERSITY OF CALIFORNIA, priority 2011, dated 2020):

Tests used:
isogenic control (TIM10) = assay: Yeast growth inhibition (MIC50), isogenic control (TIM10); assay type: cell-based; settings: Saccharomyces cerevisiae
Method: A primary screen was performed using freshly streaked tim10-1 diluted in YPD to an OD600 of approximately 0.0002 and kept on ice throughout the screening run. A Titertek multidrop (Huntsville, Ala.) was used dispense 40 μL of cell suspension to all wells of each clear 384-well plate (Greiner Bio One). After yeast suspension warmed to room temperature, a Biomek FX (Beckman Coulter) was used to pin transfer 0.5 μL of compound from 1 mM stock or DMSO to respective wells. Approximate screening concentration was 12.5 μM. All operations were performed by an automated plate scheduler to ensure consistency across the screening run. After completed compound transfer, all plates were incubated at 25° C. in a humidified incubator until the OD600 reached approximately 0.8 in the control wells; the control consisted of the tim10-1 mutant with the vehicle 1% DMSO. Each plate was shaken in a Beckman orbital shaker to resuspend settled cells, and the OD600 in each well was read by a Wallac Victor plate reader (Perkin Elmer). The top 600 growth inhibitory compounds were determined and assembled into two plates. Using a similar screening methodology, hit compounds were reconfirmed with the tim10-1 strain and growth inhibition was compared to the WT strain (TIM10) as well as the “rescued” strain (tim10-1 TIM10 that contained a copy of the wild-type TIM10 genes on a centromeric plasmid) strains. […]

[1] = test system: tim10-1 tim9S mitochondria; assay: In vitro import of radiolabeled precursors into tim10-1 tim9S mitochondria; assay type: biochemical, yeast
Method: Prior to import into purified mitochondria, ^35S-methionine and cysteine labeled proteins were generated with TNT Quick Coupled Transcription/Translation kits (Promega) and plasmids carrying the gene of interest. Transcription of genes was driven by either a T7 or SP6 promoter. Import reactions were conducted according to established methods. After frozen mitochondria aliquots were thawed and added to the import buffer at a final concentration of 100 μg/mL, drug or DMSO vehicle was added as indicated. A final vehicle concentration of 1% was used in all experiments. Following 15 minute incubation at 25° C., import reactions were initiated by the addition of […] of translation mix. Aliquots were removed at intervals during the reaction timecourse and import was terminated with either cold buffer, 25 μg/mL trypsin, or a combination of both. If trypsin was added to digest unimported precursor protein, soybean trypsin inhibitor (STI) was subsequently added in excess after 15 minute incubation on ice. After a final recovery of by centrifugation (8,000×g, 5 minutes), mitochondria were disrupted in Laemmli sample buffer. Imports of membrane proteins (AAC, PiC, Tom40, Tim22, and Tim23) included a carbonate extraction step to remove proteins that had not inserted into the membrane (Koehler C M, et al. (1998), Science 279:369-373). Samples from import reaction time points were resolved by SDS polyacrylamide gel electrophoresis (SDSPAGE) and gels were dried prior to exposing to film.

[2] = test system: tim10-1 mutant overexpressing import components; assay: Yeast growth inhibition, tim10-1 mutant overexpressing import components; assay type: cell-based
From the text: In general, a standard set of genetic and molecular techniques were used to generate the strains in this study (31, 32). Screening strains were generated based on previously characterized temperature sensitive mutants (see supplementary table 1). The snq1 and pdr5 deletions were introduced in each strain by strain mating with MDY326 or PCR-mediated deletion (33, 34). Overexpression strains were generated by transforming 2p yeast shuttle vectors carrying the gene of interest with the native promoter into the tim10-1 strain using a standard LiCl protocol (35). Transformed yeast was maintained on selective media appropriate for the plasmid's auxotrophic marker. Strains lacking mitochondrial DNA (rho null) were generated by two rounds of selection of the parent on YPD plates supplemented with ethidium bromide (40 μg/ml) followed by two rounds of single colony selection on YPD plates.
A primary screen was performed using freshly streaked tim10-1 diluted in YPD to an OD600 of approximately 0.0002 and kept on ice throughout the screening run. […] Each plate was shaken in a Beckman orbital shaker to resuspend settled cells, and the OD600 in each well was read by a Wallac Victor plate reader (Perkin Elmer). The top 600 growth inhibitory compounds were determined and assembled into two plates. […]

Erv2 = Erv2 (Saccharomyces cerevisiae, UniProt Q12284); assay: In vitro Erv2 activity, Amplex Red-HRP assay; assay type: biochemical, yeast
Erv1 = target: T1, Erv1 (Saccharomyces cerevisiae, UniProt P27882); assay: Erv1-His pull-down of partner proteins from mitochondria; assay type: binding, yeast; settings: 50 μM, 30 min
T1 construct: made in house
T1 sequence (P27882 1-189): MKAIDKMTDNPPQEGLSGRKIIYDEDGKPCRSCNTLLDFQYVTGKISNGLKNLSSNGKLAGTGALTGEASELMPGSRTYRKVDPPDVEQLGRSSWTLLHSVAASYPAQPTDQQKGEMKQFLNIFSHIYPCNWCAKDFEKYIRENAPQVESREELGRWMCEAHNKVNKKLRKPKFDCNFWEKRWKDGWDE
Method: (A) Mitochondria from a strain expressing C-terminal histidine-tagged Erv1 were incubated with 50 μM MitoBloCK-6 or 1% DMSO for 30 min at 25° C. followed by solubilization in 1% digitonin buffer. As a control, 100 μg of extract was withdrawn (T), and 500 μg lysate was incubated with Ni+^2-agarose beads. The beads were washed and bound proteins (B) were eluted with SDS-PAGE sample buffer. To test effectiveness of binding, 100 μg of the unbound protein fraction (S) was also included. Proteins were analyzed by immunoblotting with polyclonal antibodies against Mia40, Erv1, and cyt c. (B) Recombinant Erv1 was preincubated with MitoBloCK-6 or 1% DMSO for 1 hr at 25° C. and then Erv1 (1 μM) was incubated with reduced Tim13 (15 μM) and Mia40 (1 μM) in a time course assay (Tienson et al., 2009). Aliquots were removed at the indicated times and free thiols on Tim13 were modified with AMS addition. Oxidized and reduced Tim13 were detected by non-reducing SDS-PAGE and immunoblotting with antibodies against Tim13.
MitoBloCK-6 was preincubated with mitochondria isolated from the Erv1-His strain followed by solubilization in 1.0% digitonin and Erv1-His was purified with Ni′ agarose. In DMSO treated cells, a small fraction of the Mia40 and half of the cyt c co-purified with Erv1, as reported previously (Tienson et al., 2009). […]

Erv2, sequence (Q12284 whole entry): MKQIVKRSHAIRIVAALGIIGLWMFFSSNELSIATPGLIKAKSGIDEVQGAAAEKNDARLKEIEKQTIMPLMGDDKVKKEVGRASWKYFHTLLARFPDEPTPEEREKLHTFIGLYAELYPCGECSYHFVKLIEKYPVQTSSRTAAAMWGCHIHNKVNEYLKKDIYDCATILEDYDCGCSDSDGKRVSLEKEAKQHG

In the case of `NC(=S)N/N=C/c1c(O)c(Br)cc2oc3c(c12)CCCC3` [MitoBloCK-1], the MIC50 (isogenic control (TIM10)) is reported as over 200 µM, the “protease sensitivity of AAC precursor” value ([1]; presence of a membrane potential) is reported as “sensitive to protease” and the “import of Hsp60 (TIM23 pathway)” value ([1]; tim10-1 tim9S mitochondria) is reported as “did not impair import”. The “import of Mia40 (Mia40/Erv1 pathway)” value ([1]; tim10-1 tim9S mitochondria) was “not inhibited”, the “import of Su9-DHFR (TIM23 pathway)” value ([1]; tim10-1 tim9S mitochondria) was “did not impair import” and the “import of Tafazzin” value ([1]; tim10-1 tim9S mitochondria) was “import was inhibited”. For the same compound, the “import of Tim9 (Mia40/Erv1 pathway)” value ([1]; tim10-1 tim9S mitochondria) was “not inhibited”, the “import of Tim10 (Mia40/Erv1 pathway)” value ([1]; tim10-1 tim9S mitochondria) was “not inhibited” and the “import of Tim22” value ([1]; tim10-1 tim9S mitochondria) was “impaired”. The “import of Tim23” value ([1]; tim10-1 tim9S mitochondria) was “but not Tim23 was impaired”, the “import of Tom40” value ([1]; tim10-1 tim9S mitochondria) was “inhibited the import” and the “import of cyt b2-DHFR (TIM23 pathway)” value ([1]; tim10-1 tim9S mitochondria) was “did not impair import”. The “import of phosphate carrier (PiC)” value ([1]; tim10-1 tim9S mitochondria) was “inhibited the import”, the “import of AAC” value ([1]; tim10-1 tim9S mitochondria, 1 μM MitoBloCK-1 or greater) was “markedly decreased” and the “growth inhibition of tim10-1 mutant with overexpression of import components” value [2] was “did not alter the ability of MitoBloCK-1 to inhibit growth”.
`Oc1c(Cl)cc(Cl)cc1/C=N/c1ccc(Nc2ccccc2)cc1` [MitoBloCK-6] was tested, and the IC50 (Erv2) was 1400 nM, the “binding of Mia40 to Erv1 decreased by” value (Erv1) was 75% and the “binding of cyt c to Erv1 decreased by” value (Erv1) was 95%.
